Reference: publication PMC7087583 (Biotechnology Letters, 2012)

Target: SARS 3CL^pro (Severe acute respiratory syndrome coronavirus, UniProt P0C6U8)
Assay: biochemical
Design: species or system SARS-CoV

Row | Compound | IC50 [µM] | inhibition at 200 µM (pH 7.5) [%] | Inhibition (%) (pH 7.5) | 3CL^pro inhibitory activity relative to EGCG (times higher) [times] | Ki [µM] | Type of inhibition
1 | O=C1c2c(O)cc(O)cc2O[C@H](c2cc(O)c(O)c(O)c2)[C@H]1O [AMPLS, ampelopsin] | 364 ± 8.7 | > 30 |  |  |  | 
2 | O=c1c(-c2ccc(O)cc2)coc2cc(O)ccc12 [Daidzein, daidzein] | 351 ± 2.9 | > 30 |  |  |  | 
3 | Oc1cc(O)c2c(c1)O[C@H](c1cc(O)c(O)c(O)c1)[C@H](O)C2 [EGC, epigallocatechin] |  | 5 | 5.4 |  |  | 
4 | O=C(O[C@@H]1Cc2c(O)cc(O)cc2O[C@H]1c1cc(O)c(O)c(O)c1)c1cc(O)c(O)c(O)c1 [GCG, gallocatechin gallate] | 47 ± 0.9 | > 80 |  | 1.5 | 25 ± 1.7 | competitive inhibition pattern
5 | O=c1c(-c2ccc(O)cc2)coc2c([C@@H]3O[C@H](CO)[C@@H](O)[C@H](O)[C@H]3O)c(O)ccc12 [Puerarin, puerarin] | 381 ± 12.5 | > 30 |  |  |  | 
6 | O=c1c(O)c(-c2ccc(O)c(O)c2)oc2cc(O)cc(O)c12 [Quercetin] | 73 ± 4 | > 80 |  |  |  | 
